Test results taken from article PMC10467108, “Of Seven New K^+ Channel Inhibitor Peptides of Centruroides bonito, α-KTx 2.24 Has a Picomolar Affinity for Kv1.2” (Toxins, 2023).
Where a SMILES comes first, the peptide text is derived from it. Bridges are numbered along the chain shown (N, C = ends).

Experiments:
Format in all cases: cell-based
hKv1.1 = target: T1, hKv1.1 (Homo sapiens, UniProt Q09470); assay: Whole-cell patch-clamp of Kv1.1 currents in transiently transfected CHO cells
T1 construct: host or cells: CHO cells, transient transfection (Lipofectamine 2000)
T1 sequence (Q09470 whole entry): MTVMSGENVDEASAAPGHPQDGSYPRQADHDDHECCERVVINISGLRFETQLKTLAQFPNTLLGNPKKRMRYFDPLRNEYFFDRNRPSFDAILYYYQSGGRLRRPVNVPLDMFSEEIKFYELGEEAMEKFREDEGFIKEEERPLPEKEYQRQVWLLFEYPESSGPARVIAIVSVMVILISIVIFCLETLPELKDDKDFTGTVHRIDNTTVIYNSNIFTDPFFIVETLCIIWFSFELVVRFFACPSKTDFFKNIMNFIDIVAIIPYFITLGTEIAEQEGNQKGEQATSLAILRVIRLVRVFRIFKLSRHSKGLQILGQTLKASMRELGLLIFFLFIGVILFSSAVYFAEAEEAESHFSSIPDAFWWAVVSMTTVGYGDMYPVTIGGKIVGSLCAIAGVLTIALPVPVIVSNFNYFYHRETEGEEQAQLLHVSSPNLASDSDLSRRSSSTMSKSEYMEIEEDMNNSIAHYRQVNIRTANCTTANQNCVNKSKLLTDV
Method: (§1) Macroscopic Kv1.1 and Kv1.2 currents were measured in transiently transfected CHO cells. For Kv1.3 current recording, human T lymphocytes were activated by Phytohemagglutinin A (PHA) to increase Kv1.3 channel expression, and micro-pipettes were filled with Ca^2+-free solution to prevent KCa3.1 channel activation. K^+ currents were evoked by applying 15-ms-long depolarization pulses to +50 mV from a holding potential of −120 mV except for Kv1.2, as it has highly variable activation kinetics; therefore, 15–500 ms-long pulses were applied to maximize the open probability of Kv1.2 channel. CboK peptide toxins were dissolved in a freshly prepared extracellular solution and applied to the whole-cell patch-clamped cells using a micro perfusion system at 200 μL/min flow rate.
(§2) CHO cells were transiently transfected by using Lipofectamine 2000 kit (Invitrogen, Carlsbad, CA, USA), as per the manufacturer’s protocol with vector pCMV6-AC-GFP (cat# RG211000 and RC222200; OriGene Technologies, Rockville, MD, USA) encoding hKv1.1 (hKCNA1 gene) or hKv1.2 (hKCNA2 gene) ion channels. Cells were grown under standard conditions in an incubator at 37 °C and 5% CO2 for 24 h. GFP-positive transfected cells were identified by utilizing a Nikon TMS fluorescence microscope (Nikon, Tokyo, Japan) using bandpass filters of 455–495 nm and 515–555 nm for excitation and emission, respectively.
(§3) The patch-clamp technique was used for measuring whole-cell currents in voltage-clamped mode using standard protocols. Electrophysiological recordings were acquired by using Multiclamp 700B amplifier connected to a personnel computer with an Axon Digidata1440 digitizer (Molecular Devices, Sunnyvale, CA, USA). Pipettes were pulled from GC150F-15 borosilicate capillaries (Harvard Apparatus, Kent, UK) having 3−5 MΩ tip resistance in the bath solution. All current recordings were carried out at room temperature (20−25 °C) and only those currents were recorded and subjected to analyses when the leak current at holding potential was <5% of peak current at the test potential. Current traces were lowpass-filtered by utilizing the built-in analog four-pole Bessel filters of the amplifiers and were sampled at 20 kHz which is at least twice the filter cut-off frequency. A gravity-driven perfusion system was used to perfuse the cells with control and test solutions and excess fluid was removed continuously through vacuum suction. The extracellular solution (bath solution) contained 145 mM NaCl, 5.5 mM glucose, 5 mM KCl, 2.5 mM CaCl2, 1 mM MgCl2, and 10 mM HEPES, having pH of 7.35 and an osmolarity between 302 and 308 mOsM/L. Toxins were dissolved in bath solution at different molar concentrations and supplemented with 0.1 mg/mL of bovine serum albumin BSA (Sigma-Aldrich, Budapest, Hungary). The intracellular solution (pipette filling) was comprised of 140 mM KF, 2 mM MgCl2, 1 mM CaCl2, 10 mM HEPES, and 11 mM EGTA, with a pH of 7.22 and an osmolarity of ~295 mOsM/L.
(§4) Generally, to evoke the Kv1.xcurrents, 15-ms-long depolarization pulses to +50 mV from a holding potential of −120 mV were applied, and the current traces were recorded after every 15 s. However, in the case of Kv1.2, due to its variable activation kinetics, the duration of the depolarization pulse was set between 15 and 500 ms to attain the saturated peak current.

hKv1.2 = target: T2, hKv1.2 (Homo sapiens, UniProt P16389); assay: Whole-cell patch-clamp of Kv1.2 currents in transiently transfected CHO cells; settings: Hill fit of RCF vs toxin concentration, n ≥ 3
T2 construct: GFP (C); host or cells: CHO cells, transient transfection (Lipofectamine 2000)
T2 sequence (P16389 whole entry): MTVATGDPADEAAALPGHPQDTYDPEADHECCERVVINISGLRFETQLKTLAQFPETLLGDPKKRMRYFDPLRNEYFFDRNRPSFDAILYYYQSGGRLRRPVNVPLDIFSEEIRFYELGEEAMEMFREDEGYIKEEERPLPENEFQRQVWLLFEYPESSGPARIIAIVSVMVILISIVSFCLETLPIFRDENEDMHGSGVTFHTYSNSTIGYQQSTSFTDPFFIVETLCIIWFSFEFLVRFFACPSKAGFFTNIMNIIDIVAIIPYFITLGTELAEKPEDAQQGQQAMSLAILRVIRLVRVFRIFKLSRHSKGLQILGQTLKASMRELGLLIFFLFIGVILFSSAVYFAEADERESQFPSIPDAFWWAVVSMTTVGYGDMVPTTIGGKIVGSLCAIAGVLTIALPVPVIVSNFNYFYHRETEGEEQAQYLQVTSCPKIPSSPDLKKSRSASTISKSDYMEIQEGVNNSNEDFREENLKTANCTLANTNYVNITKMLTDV
Method: as §1, §2, §3, §4

Kv1.3 [1] = target: T3, Kv1.3 (Homo sapiens, UniProt P22001); assay: Whole-cell patch-clamp of Kv1.3 currents in PHA-activated human T lymphocytes; settings: 1 µM toxin, end of 15-ms pulse to 0 mV (Figure 6E)
T3 construct: endogenous in cells
T3 sequence (P22001 whole entry): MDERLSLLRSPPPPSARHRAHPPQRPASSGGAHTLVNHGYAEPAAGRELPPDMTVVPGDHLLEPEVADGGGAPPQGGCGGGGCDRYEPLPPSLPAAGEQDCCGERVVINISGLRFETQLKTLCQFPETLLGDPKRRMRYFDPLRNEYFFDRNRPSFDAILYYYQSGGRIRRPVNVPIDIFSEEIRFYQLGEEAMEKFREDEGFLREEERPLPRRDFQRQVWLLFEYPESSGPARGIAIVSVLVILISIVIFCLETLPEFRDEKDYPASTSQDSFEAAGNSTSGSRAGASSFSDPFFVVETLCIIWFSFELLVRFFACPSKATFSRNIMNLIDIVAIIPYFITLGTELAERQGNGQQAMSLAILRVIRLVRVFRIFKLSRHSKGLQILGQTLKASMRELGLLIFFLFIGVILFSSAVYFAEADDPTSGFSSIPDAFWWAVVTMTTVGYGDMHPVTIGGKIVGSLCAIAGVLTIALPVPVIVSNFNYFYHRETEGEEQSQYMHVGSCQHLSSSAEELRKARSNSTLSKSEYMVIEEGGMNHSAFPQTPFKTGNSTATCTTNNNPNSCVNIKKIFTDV

Kv1.3 [2] = target: T3, Kv1.3; assay: as above
Method: as §1
Isochronal RCF data points obtained this way (isochronal RCF = I4ms/I4ms,0 where I4ms,0 and I4ms are the currents at 4 ms time point in the absence and presence of CboK peptides, respectively) at different toxin concentrations were fitted with the Hill equation to obtain concentration–response curves as shown in Figure 6H.
Human peripheral venous blood was acquired from anonymous healthy volunteers from the blood bank. Blood samples were collected by having approval from the Ethical Committee of the Hungarian Medical Research Council (36255-6/2017/EKU). PBMCs were separated by Histopaque 1077 (Sigma-Aldrich, Budapest, Hungary) separation technique, and isolated cells, at the density of 5 × 10^5 cells, were cultured in RPMI 1640 media (Gibco, Grand Island, NY, USA) supplemented with 10% FBS (Sigma-Aldrich, Budapest, Hungary), 2 mM L-glutamine, […], and […] penicillin in a humidified incubator at 37 °C and 5% CO2 for 3–6 days. A measure of 2, 5, or 10 μg/mL of Phytohemagglutinin A (PHA) (Sigma-Aldrich, Budapest, Hungary) was added in cultured cells to activate the PBMCs and upregulate the Kv1.3 expression.
as §3, with “suction.” for “suction. The extracellular solution (bath solution) contained 145 mM NaCl, 5.5 mM glucose, 5 mM KCl, 2.5 mM CaCl2, 1 mM MgCl2, and 10 mM HEPES, having pH of 7.35 and an osmolarity between 302 and 308 mOsM/L. Toxins were dissolved in bath solution at different molar concentrations and supplemented with 0.1 mg/mL of bovine serum albumin BSA (Sigma-Aldrich, Budapest, Hungary). The intracellular solution (pipette filling) was comprised of 140 mM KF, 2 mM MgCl2, 1 mM CaCl2, 10 mM HEPES, and 11 mM EGTA, with a pH of 7.22 and an osmolarity of ~295 mOsM/L.”

CC[C@H](C)[C@@H]1NC(=O)[C@@H]2CSSC[C@H](NC(=O)[C@@H](NC(=O)[C@@H](N)[C@@H](C)O)C(C)C)C(=O)N[C@@H](C(C)C)C(=O)N[C@@H](Cc3ccc(O)cc3)C(=O)N[C@@H](CCCNC(=N)N)C(=O)N[C@@H]([C@@H](C)O)C(=O)N[C@H]3CSSC[C@H](NC(=O)[C@H](C)NC(=O)[C@H](CC(N)=O)NC(=O)[C@H](CC(N)=O)NC1=O)C(=O)N[C@@H](CCCCN)C(=O)N[C@H](C(=O)N[C@@H](Cc1ccc(O)cc1)C(=O)N1CCC[C@H]1C(=O)N[C@@H](Cc1ccc(O)cc1)C(=O)O)CSSC[C@H](NC(=O)[C@H](CC(=O)O)NC(=O)[C@H](CCCCN)NC(=O)[C@H](CC(=O)O)NC3=O)C(=O)N[C@@H](CCCCN)C(=O)N[C@@H](CCCNC(=N)N)C(=O)N[C@@H](CCCNC(=N)N)C(=O)NCC(=O)N[C@@H](Cc1ccc(O)cc1)C(=O)N[C@@H](CCCNC(=N)N)C(=O)N[C@@H](CO)C(=O)NCC(=O)N[C@@H](CCCCN)C(=O)N2 [CboK2] (H-TVCVYRTCDKDCKRRGYRSGKCINNACKCYPY-OH; disulfide 3-22, 8-27, 12-29)
effect on Kv1.1 currents (hKv1.1; 100 nM toxin): did not block | Kd (hKv1.1; this study, screened at 100 nM, read-out: Kd Values Kv1.1 (symbol)): > 0.1 µM | Kd (hKv1.2; cumulative application, equilibrium block, pulses to +50 mV from -120 mV, read-out: Kd for Kv1.2): 0.000763 µM | Hill coefficient H, Kv1.2 block (hKv1.2): 1.5 | remaining current fraction (RCF) of Kv1.3 at 0 mV (Kv1.3 [1]): ~ 0.23 | remaining current fraction (RCF) of Kv1.3 at +50 mV (Kv1.3 [2]; 1 µM toxin, end of 15-ms pulse to +50 mV (Figure 6C)): ~ 0.34 | Hill coefficient H, Kv1.3 block (Kv1.3 [2]; Hill fit of isochronal RCF (4 ms), n ≥ 3): 0.8 | Kd (Kv1.3 [2]; Hill fit of isochronal RCF (current at 4 ms), 15-ms pulses to +50 mV from -120 mV, n ≥ 3, read-out: Kd for Kv1.3): 0.171 µM
